Measured values: patent US4853470A, “3-(piperidinyl)- and 3-(pyrrolidinyl)-1H-indazoles” (Hoechst-Roussel Pharmaceuticals, Inc., priority 1988, dated 1989)
Like-named read-outs stand apart in the source and are kept apart here.

How the values were obtained:
[1] = tested on: tetrabenazine induced ptosis; experiment: tetrabenazine induced ptosis assay (antidepressant activity); type: in vivo, mice; conditions: Mus musculus, ip, read-out: ED50, inhibition of ptosis
Description: The 3-(piperidinyl)- and 3-(pyrrolidinyl)-1H-indazoles of the present invention are also useful as antidepressants by virtue of their ability to elicit an antidepressant response in mammals. […] Thus, for example,. the intraperitoneal (i.p.) dose effecting an estimated 50% inhibition of ptosis (ED50) in mice produced in this assay is as follows: […]

[2] = tested on: mean arterial blood pressure; experiment: antihypertensive activity, indirect tail cuff method, spontaneous hypertensive rat; type: in vivo; conditions: third day
Description: The compounds of the invention are also useful as antihypertensive agents due to their ability to depress blood pressure in mammals. Antihypertensive activity is measured in the spontaneous hypertensive rat by the indirect tail cuff method described in "Methods in Pharmacology," A. Schwartz, Ed., Vol. I, Appleton-Century Crofts, N.Y., 1971, p. 135. In this procedure a group of five animals are treated orally (p.o.) for three days with the test compound in relation to the control group of the same number. The drop in blood pressure is measured on the third day following administration. The antihypertensive activities of some of the compounds, expressed as mm decrease in mean arterial blood pressure are given below: […]

| SMILES | ED50 ([1]; estimated 50% inhibition) | further results |
| --- | --- | --- |
| CN1CCC(c2nn(-c3ccccc3F)c3ccccc23)CC1.Cl [1-(2-Fluorophenyl)-3-(1-methyl-4-piperidinyl)-1H-indazole hydrochloride] | 1.7 mg/kg | – |
| CN1CCC(c2nn(-c3cccc(F)c3)c3ccccc23)CC1.Cl [1-(3-Fluorophenyl)-3-(1-methyl-4-piperidinyl)-1H-indazole hydrochloride] | 5 mg/kg | – |
| COC(=N)N1CCC(c2n[nH]c3ccccc23)CC1 [4-(1H-indazol-3-yl)piperidine-1-carboximidic acid methyl ester] | – | Decrease in Blood Pressure ([2]; 3 mg/kg p.o.): 47 mm Hg |
| COC(=N)N1CCC(c2n[nH]c3cc(F)ccc23)CC1 [4-(6-fluoro-1H-indazol-3-yl)piperidine-1-carboximidic acid methyl ester] | – | Decrease in Blood Pressure ([2]; 30 mg/kg p.o.): 88 mm Hg |
| CN1CCC(c2nn(-c3ccccc3F)c3cc(F)ccc23)CC1.O=C(O)/C=C/C(=O)O [6-Fluoro-1-(2-fluorophenyl)-3-(1-methyl-4-piperidinyl)-1H-indazole fumarate] | 6.3 mg/kg | – |
| CN(C)CCC=C1c2ccccc2CCc2ccccc21 [amitriptyline, reference compound] | 1.5 mg/kg | – |
| N=C(N)NCCN1CCCCCCC1 [guanethidine, reference compound] | – | Decrease in Blood Pressure ([2]; 50 mg/kg p.o.): 20 mm Hg |
| CN(C)CCCN1c2ccccc2CCc2ccccc21 [imipramine, reference compound] | – | ED50 [1]: 1.3 mg/kg |
